Source: article PMC9490042 (iScience, 2022)
Where a name gives a salt, the structure may show the parent alone. Read-outs that look alike come from different tables or passages of the source.

Columns and labels:
Experiment in all cases: steady-state tryptophan fluorescence quenching titration in PBS
Format in all cases: binding
[1] = target: T1, bovine serum albumin (BSA) (Bos taurus, UniProt P02769)
[2] = target: hen egg-white lysozyme (HEWL) (Gallus gallus, UniProt P00698)
[3] = target: T1, bovine serum albumin (BSA); remark: listed apart in the source

T1 sequence (P02769 25-607): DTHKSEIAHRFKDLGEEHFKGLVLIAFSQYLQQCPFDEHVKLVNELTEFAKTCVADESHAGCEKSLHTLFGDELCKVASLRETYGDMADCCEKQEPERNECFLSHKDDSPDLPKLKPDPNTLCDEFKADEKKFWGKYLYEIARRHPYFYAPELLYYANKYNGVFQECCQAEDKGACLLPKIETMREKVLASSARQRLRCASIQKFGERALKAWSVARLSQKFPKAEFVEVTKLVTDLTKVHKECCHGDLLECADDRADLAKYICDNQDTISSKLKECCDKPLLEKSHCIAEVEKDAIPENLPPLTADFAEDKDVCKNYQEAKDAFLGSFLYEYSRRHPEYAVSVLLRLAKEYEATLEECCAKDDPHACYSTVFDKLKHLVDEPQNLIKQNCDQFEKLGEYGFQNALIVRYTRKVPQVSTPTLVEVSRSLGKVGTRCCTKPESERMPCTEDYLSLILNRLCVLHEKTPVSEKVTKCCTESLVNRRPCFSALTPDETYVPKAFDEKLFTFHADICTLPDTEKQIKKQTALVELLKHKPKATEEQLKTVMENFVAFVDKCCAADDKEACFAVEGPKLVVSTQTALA
Chain of hen egg-white lysozyme (HEWL) (P00698 19-147): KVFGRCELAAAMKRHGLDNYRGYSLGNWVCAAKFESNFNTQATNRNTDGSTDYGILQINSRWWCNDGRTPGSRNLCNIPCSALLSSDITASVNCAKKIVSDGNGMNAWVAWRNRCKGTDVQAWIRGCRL

Row | Kd [1] [µM] | Kd [2] [µM] | Kd [3] [µM] | SMILES
1 | 16.5 ± 2.5 | – | – | COc1cccc2c1C(=O)c1c(O)c3c(c(O)c1C2=O)C[C@@](O)(C(=O)CO)C[C@@H]3O[C@H]1C[C@H](N)[C@H](O)[C@H](C)O1 [Doxorubicin]
2 | 4.6 ± 1.1 | – | – | CCN(CC)CCCC(C)Nc1c2ccc(Cl)cc2nc2ccc(OC)cc12 (stereo not shown) [Quinacrine dihydrochloride]
3 | – | 1.7 ± 0.7 | 5.2 ± 1.2 | Cn1cc(C2=C(c3ccc(Cl)cc3Cl)C(=O)NC2=O)c2ccccc21 [SB216763]
